# Earlier results as cited in patent publication US7541158B2, “Taste receptors of the T1R family from domestic dog” (Monell Chemical Senses Center, priority 2004, dated 2009).
# Legend:
# dog = conditions: neurophysiological studies; mono- and disaccharides and sweeteners
# dog taste nerve fibers = conditions: for response of dog taste nerve fibers that respond to sucrose: sucrose-responsive fibers
SMILES,taste response activity in the dog (dog),behavioral preference (domestic dog; behavior said to be congenital),response of dog taste nerve fibers that respond to sucrose (dog taste nerve fibers),taste quality perceived by dog (domestic dog),response of dog taste nerve fibers fired by saccharin (dog taste nerve fibers; saccharin-responsive fibers)
O=C(CO)[C@@H](O)[C@H](O)[C@H](O)CO [D-fructose],Particularly active,,,,
OC[C@H]1O[C@@](CO)(O[C@H]2O[C@H](CO)[C@@H](O)[C@H](O)[C@H]2O)[C@@H](O)[C@@H]1O [sucrose],Particularly active,shows a preference,responded,,
O=C1NS(=O)(=O)c2ccccc21 [saccharin],,,no response,bitter,fired
OC[C@H]1O[C@](O)(CO)[C@@H](O)[C@@H]1O [β-D-fructose],Particularly active,,,,
